# Data as given in patent EP0184471A1, “Product containing an antiprogestomimetic and a uterotonic substance” (ROUSSEL-UCLAF, priority 1984, dated 1986).
# Marks after values point to notes of the source that are not given here.
# Test system: grossesse apparemment normale et une aménorhée de 49 jours au plus
# Assay: Clinical study of termination of early pregnancy: oral RU 486 alone or with an intramuscular sulprostone injection
# Format: in vivo, jeunes femmes
# Method: L'étude a porté sur 33 jeunes femmes en bonne santé présentant une grossesse apparemment normale et une aménorhée de 49 jours au plus.
# Le composé RU 486 a été administré oralement à différentes doses : • 1) 25 mg 2 fois par jour pendant 4 jours. • 2) 25 mg 4 fois par jour pendant 4 jours.
# Chez 16 patientes une injection intramusculaire de 0,25 mg de la méthylsulfonylamide de la 16-phénoxytétranor PG E2 (sulprostone) a été administrée le matin du dernier jour de traitement par le RU 486. Les sujets ont jeuné au moins une heure avant jusqu'à une heure après la prise du produit.
# Les résultats obtenus sont rapportés dans le tableau I ci-après.
# [1] = number of patients, RU 486 25 mg orally 2 times per day for 4 days (25 x 2), n=11 group A, n=9 group B
# [2] = number of patients, RU 486 25 mg orally 4 times per day for 4 days (25 x 4), n=6 group A, n=7 group B
# [3] = number of patients, Total of both RU 486 doses, n=17 group A, n=16 group B
# [4] = percent of patients, Total of both RU 486 doses, n=17 group A
smiles,measurement,setting,value
"CC#C[C@]1(O)CC[C@H]2[C@@H]3CCC4=CC(=O)CCC4=C3[C@@H](c3ccc(N(C)C)cc3)C[C@@]21C [RU 486, 11β-(4-diméthylaminophényl) 170 - hydroxy 17α-(prop-l-ynyl) estra 4,9 - dièn 3 - one]",Avortements complets,[1],8
same,Avortements incomplets,[1],1
same,Poursuite de la grossesse,"number of patients, RU 486 25 mg orally 2 times per day for 4 days (25 x 2), n=11 group A, n=9 group B, group A value includes one extra-uterine pregnancy",2*
same,Avortements complets,[2],5
same,Avortements incomplets,[2],0
same,Poursuite de la grossesse,[2],1
same,Avortements complets,[3],13
same,Avortements incomplets,[3],1
same,Poursuite de la grossesse,[3],3
same,Avortements incomplets,[4],"5,9%"
same,Poursuite de la grossesse,[4],"17,6%"
same,Avortements complets,"percent of patients, Total of both RU 486 doses, n=17 group A, n=16 group B","76,5%"
